Assay results reported in patent publication US20100009956A1, “NOVEL SUBSTITUTED PYRIMIDINES AS CYSTEINE PROTEASE INHIBITORS” (Glaxo Group Limited , a corporation, priority 2006, published 2010).
Counter-ions that a name gives are not always drawn. Like-named read-outs stand apart in the source and are kept apart here.

Legend:
Format in all cases: biochemical
Cathepsin K = molecular target: T1, Cathepsin K (Homo sapiens, UniProt P43235); assay: Cathepsin K enzymatic assay (assay 1); conditions: human recombinant enzyme, Z-FR-AFC substrate, pH 5.5
T1 sequence (P43235 115-329): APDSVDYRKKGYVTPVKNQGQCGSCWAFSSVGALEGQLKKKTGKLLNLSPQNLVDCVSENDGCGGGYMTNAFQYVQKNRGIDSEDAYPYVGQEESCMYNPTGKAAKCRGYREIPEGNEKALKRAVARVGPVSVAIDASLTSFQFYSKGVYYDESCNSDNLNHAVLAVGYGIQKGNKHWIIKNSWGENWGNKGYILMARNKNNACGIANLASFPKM
Method: (§1) Assay 1) Determination of Falcipain-2, Falcipain-3, Vivapain-2, Cathepsin K Cathepsin S, Cathepsin L, and Cathepsin B Proteolytic Catalytic Activity
(§2) Assays for Falcipain-2, Falcipain-3, and Vivapain-2 are carried out with parasitic recombinant enzymes. Cathepsins K, S, L, and B are carried out with human recombinant enzymes. Standard assay conditions for the determination of kinetic constants used a fluorogenic peptide substrate, typically H-D-VLR-AFC (Falcipain-2, Falcipain-3, Vivapain-2), Z-FR-AFC (Cathepsin K, L, B), or KQKLR-AMC (Cathepsin S) and are determined in 100 mM sodium acetate, pH 5.5, containing 10 mM DTT and 0.5 mM CHAPS (Falcipain-2, Falcipain-3, Vivapain-2), and 100 mM sodium acetate, pH 5.5, containing 5 mM L-cysteine, 1 mM CHAPS and 5 mM EDTA (Cathepsin K, L, B), or 50 mM MES, pH 6.5, containing 0.5 mM CHAPS, 10 mM L-CYS, 5 mM EDTA (Cathepsin S). Stock substrate solutions are prepared at 20 mM in DMSO. The activity assays contained 30 uM substrate (Falcipain-2, Falcipain-3, Vivapain-2), 20 uM substrate (Cathepsin K), 25 uM substrate (Cathepsin B), 5 uM substrate (Cathepsin L), and 30 uM substrate (Cathepsin S). All assays contained 1% DMSO. […] All assays are conducted at ambient temperature as end point assays being quenched after 60 minutes with the exception of Cathepsin S at 90 minutes, with 16.6 uM E-64 in 1% DMSO. Product formation (AFC or AMC) is determined from fluorescence (excitation at 405 nm; emission at 530 nm, AFC, or excitation at 360 nm; emission at 460 nm, AMC) monitored with a LJL Aquest (Molecular Devices) fluorescent plate reader. In the case of kinetic reads (used in mechanism of action studies), the reaction is not quenched but is read in the plate reader every 3 minutes for approximately 90 minutes. In addition, the mechanism of action studies for Falcipain-2 utilize Z-LR-AMC as the substrate. Product formation is determined from the fluorescence of AMC, measured with a LJL Acquest (Molecular Devices) fluorescent plate reader (excitation at 360 nm; emission at 460 nm).
(§3) Potential inhibitors are evaluated using the quenched read (endpoint) method. Assays are carried out in the presence of variable concentrations of test compound. Reactions are initiated by addition of enzyme and substrate to wells containing inhibitor stamped in 100% DMSO. For endpoint assays, the reaction is quenched with the addition of E64. Dose response data is fit to an IC50 curve with preset fitting tools according to equation 1:
(§4) y=a+(b−a)/(1+(10^x/10^c)^d) (1)
(§5) where y is the response at a particular inhibitor concentration x, a is the minimum response value, b is the maximum response value, c is the IC50, and d is the slope of the IC50 curve. Assuming the compound is a competitive inhibitor, the apparent KI can be calculated from IC50, as shown in equation 2: […]

Falcipain-3 = Falcipain-3 (Plasmodium falciparum, UniProt Q8IIL0); assay: Falcipain-3 enzymatic assay (assay 1)
Sequence of Falcipain-3 (Q8IIL0 243-492): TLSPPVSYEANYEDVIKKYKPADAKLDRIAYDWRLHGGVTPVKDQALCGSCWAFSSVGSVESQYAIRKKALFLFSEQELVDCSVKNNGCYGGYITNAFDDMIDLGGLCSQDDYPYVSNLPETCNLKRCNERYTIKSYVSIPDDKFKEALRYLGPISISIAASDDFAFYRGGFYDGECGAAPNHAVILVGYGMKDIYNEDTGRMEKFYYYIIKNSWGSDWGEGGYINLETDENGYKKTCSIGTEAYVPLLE
Method: as §1, §2, §3, §4, §5

Falcipain-2 = Falcipain-2 (Plasmodium falciparum, UniProt Q8I6U4); assay: Falcipain-2 enzymatic assay (assay 1)
Sequence of Falcipain-2 (Q8I6U4 244-484): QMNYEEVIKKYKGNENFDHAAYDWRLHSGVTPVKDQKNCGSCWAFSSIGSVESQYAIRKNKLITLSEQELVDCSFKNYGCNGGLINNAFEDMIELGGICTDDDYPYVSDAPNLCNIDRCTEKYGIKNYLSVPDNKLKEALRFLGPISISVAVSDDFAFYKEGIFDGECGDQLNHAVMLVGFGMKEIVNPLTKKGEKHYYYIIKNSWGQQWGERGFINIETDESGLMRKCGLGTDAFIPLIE
Method: as §1, §2, §3, §4, §5

Row | SMILES | IC50 (Cathepsin K) | IC50 (Falcipain-3) | IC50 (Falcipain-2) | IC50 (Falcipain-3; parasitic recombinant enzyme, H-D-VLR-AFC substrate, pH 5.5, endpoint read, read-out: Falcipain-3 IC50)
1 | CN1CCN(C2CCN(Cc3ccc(C(=O)NN(c4nc(C#N)ncc4Br)C4CCCC4)cc3)CC2)CC1 [Example 10, N′-(5-bromo-2-cyano-4-pyrimidinyl)-N′-cyclopentyl-4-{[4-(4-methyl-1-piperazinyl)-1-piperidinyl]methyl}benzohydrazide trifluoroacetate] | < 1.5 nM | 2.5 to 15 nM | < 1 nM | 
2 | CN1CCN(C2CCN(Cc3cccc(C(=O)NN(c4nc(C#N)ncc4Br)C4CCCC4)c3)CC2)CC1 [Example 11, N′-(5-bromo-2-cyano-4-pyrimidinyl)-N′-cyclopentyl-3-{[4-(4-methyl-1-piperazinyl)-1-piperidinyl]methyl}benzohydrazide trifluoroacetate] | < 1.5 nM | 2.5 to 15 nM | < 1 nM | 
3 | CN1CCN(C(=O)C2CCN(Cc3cccc(C(=O)NN(c4nc(C#N)ncc4Br)C4CCCC4)c3)CC2)CC1 [Example 12, N′-(5-bromo-2-cyano-4-pyrimidinyl)-N′-cyclopentyl-3-({4-[(4-methyl-1-piperazinyl)carbonyl]-1-piperidinyl}methyl)benzohydrazide trifluoroacetate] | < 1.5 nM | 2.5 to 15 nM | < 1 nM | 
4 | CN1CCCC(CN2CCN(Cc3cccc(C(=O)NN(c4nc(C#N)ncc4Br)C4CCCC4)c3)CC2)C1 (stereo not drawn) [Example 14, N′-(5-bromo-2-cyano-4-pyrimidinyl)-N′-cyclopentyl-3-({4-[(1-methyl-3-piperidinyl)methyl]-1-piperazinyl}methyl)benzohydrazide trifluoroacetate] | < 1.5 nM | 2.5 to 15 nM | < 1 nM | 
5 | CN1CCC(CN2CCN(Cc3cccc(C(=O)NN(c4nc(C#N)ncc4Br)C4CCCC4)c3)CC2)CC1 [Example 15, N′-(5-bromo-2-cyano-4-pyrimidinyl)-N′-cyclopentyl-3-({4-[(1-methyl-4-piperidinyl)methyl]-1-piperazinyl}methyl)benzohydrazide trifluoroacetate] | < 1.5 nM |  | < 1 nM | 2.5 to 15 nM
6 | N#Cc1ncc(Br)c(N(NC(=O)c2ccc(CN3CCC(N4CCOCC4)CC3)cc2)C2CCCCC2)n1 [Example 18, N′-(5-bromo-2-cyano-4-pyrimidinyl)-N′-cyclohexyl-4-{([4-(4-morpholinyl)-1-piperidinyl]methyl}benzohydrazide trifluoroacetate] | < 1.5 nM | 2.5 to 15 nM | < 1 nM | 
7 | CN1CCC(CN2CCN(Cc3ccc(C(=O)NN(c4nc(C#N)ncc4Br)C4CCCCC4)cc3)CC2)CC1 [Example 19, N′-(5-bromo-2-cyano-4-pyrimidinyl)-N′-cyclohexyl-4-({4-[(-methyl-4-piperidinyl)methyl]-1-piperazinyl}methyl)benzohydrazide trifluoroacetate] | < 1.5 nM | 2.5 to 15 nM | < 1 nM | 
8 | CN1CCN(C2CCN(Cc3cccc(C(=O)NN(c4nc(C#N)ncc4Br)C4CCCCC4)c3)CC2)CC1 [Example 20, N′-(5-bromo-2-cyano-4-pyrimidinyl)-N′-cyclohexyl-3-{([4-(4-methyl-1-piperazinyl)-1-piperidinyl]methyl}benzohydrazide trifluoroacetate] | < 1.5 nM | 15 to 150 nM | < 1 nM | 
9 | N#Cc1ncc(Br)c(N(NC(=O)c2ccc(CN3CCC(O)CC3)cc2)C2CCCCC2)n1 [Example 21, N′-(5-bromo-2-cyano-4-pyrimidinyl)-N′-cyclohexyl-4-[(4-hydroxy-1-piperidinyl)methyl]benzohydrazide trifluoroacetate] | < 1.5 nM | 2.5 to 15 nM | < 1 nM | 
10 | CN1CCN(C(=O)C2CCN(Cc3ccc(C(=O)NN(c4nc(C#N)ncc4Br)C4CCCCC4)cc3)CC2)CC1 [Example 22, N′-(5-bromo-2-cyano-4-pyrimidinyl)-N′-cyclohexyl-4-({4-[(4-methyl-1-piperazinyl)carbonyl]-1-piperidinyl}methyl)benzohydrazide trifluoroacetate] | < 1.5 nM | 2.5 to 15 nM | < 1 nM | 
